Measurements taken from patent US20080319042A1, “Compositions and methods for treatment of liver disease” (priority 2007, published 2008).
Where “and” joins values, the source holds several entries; their conditions need not be identical. Equal entries are not always repeated.

Key:
HCV = details: cited from earlier work
HBsAg = assay: Anti-HBSAg Assay (Procedure B), HBsAg; type: cell-based, hepatitis B virus
Protocol: The HBV-producing human hepatoblastoma cell line, Hep G2 2.2.15 is maintained in DMEM supplemented with 10% fetal bovine serum (FBS), 2 mM glutamine, 100 units/ml penicillin, 100 μg/ml streptomycin at 37° C. under 5% CO2 in air.
Samples were dissolved in DMSO at the concentration of 20 mg/mL, then further diluted with DMEM medium to the appropriate concentration.
Hep G2 2.2.15 cells (120 μl) were seeded onto 96-well plates at a concentration of 2×10^5 cells/mL. The cells incubated for 72 h in the medium without G418, after which the test samples (120 μl) were added. Five 3-fold serial dilutions of samples were tested. PBS and 3TC (lamivudine) were included as the negative and positive controls, respectively. The treated cells were incubated at 37° C. for 9 days; with the medium with sample being changed each 3 days, after which the culture supernatant was removed for analysis of both the hepatitis B surface antigen (HBsAg) production and hepatitis B DNA expression.
The HBsAg released into the culture medium in the presence or absence of test material was assayed using the kit manufactured by Shanghai Siic Kehua Biotech Co., Ltd (Shanghai, China). This enzyme immunoassay is based on the capture of HBsAg on monoclonal antibody-coated plates. Four- and twelve-fold dilutions of all culture supernatants collected were assayed in triplicate wells of the kit plate. The percentage inhibition of HBsAg secretion in the presence of the compound was calculated against the negative control (PBS). The IC50 values, the dose that inhibited viruses by 50%, were calculated using non-linear regression analysis (percent survival versus concentration).

HBeAg = assay: Anti-HBSAg Assay (Procedure B), HBeAg; type: cell-based, hepatitis B virus
HCV/HIV pseudovirions = assay: microbe, parasite or virus in culture; type: cell-based, hepatitis C virus; details: FIG. 1
HBV DNA = assay: Anti-HBV DNA Assay; type: cell-based, hepatitis B virus; details: for HBV DNA copies/ml: replicates, listed as HP-S1
[1] = test system: hepatitis B surface antigen (HBsAg) production; assay: Anti-HBSAg Assay (Procedure A); type: cell-based, hepatitis B virus; details: 50 μg/ml
Protocol: (§1) The HBV-producing human hepatoblastoma cell line, Hep G2.2.15 was maintained in DMEM supplemented with 10% fetal bovine serum (FBS), 2 mM glutamine, 100 units/ml penicillin, 100 μg/ml streptomycin and 380 μg/ml gentamicin sulfate (G418) at 37° C. under 5% CO2 in air. The Hep G2 parental cells were grown under identical conditions in MEM with Earle's salts without G418.
(§2) Hep G2.2.15 cells (190 μl) were seeded onto microtiter plates at a concentration of 20×10^4 cells/ml. The cells incubated overnight in medium without G418 after which the compound compositions (10 μl) were added. Five 2-fold serial dilutions of extracts or fractions were tested starting at 200 μg/ml final culture concentration. PBS and 3TC (lamivudine) were included as the negative and positive controls, respectively. The treated cells were incubated at 37° C. for 4 days, after which the hepatitis B surface antigen (HBsAg) production in culture supernatants was assayed. The HBsAg released into the culture medium in the presence or absence of test samples was assayed using the BIO-RAD Genetic Systems HBsAg EIA 3.0 kit (Bio-Rad, Redmond, Wash.). This enzyme immunoassay is based on the capture of HBsAg on monoclonal antibody-coated plates. Four- and twelve-fold dilutions of all culture supernatants collected were assayed in triplicate wells of the EIA plate. The percentage inhibition of HBsAg secretion in the presence of the plant samples was calculated against the negative control (PBS).

Hep G2.2.15 cells = assay: % Cell Viability in Anti-HBSAg Assay (Procedure A); type: cell-based, human; details: 50 μg/ml
Protocol: as §1, §2

For `COc1cc2c(c(OC)c1OC)-c1ccc(OC)c(=O)cc1[C@@H](NC(C)=O)CC2` [Colchicine, colchicine], the “effect on disease progression (in words)” value (HCV; advanced liver disease) is listed as “does not slow the disease progression”.

With `COC(=O)C1=CO[C@@H](O[C@@H]2O[C@H](CO)[C@@H](O)[C@H](O)[C@H]2O)[C@H]2[C@@H]1[C@H](O)[C@H](O)[C@]2(C)O` [lamiridoside] the “HBsAg Ave.” value (HBsAg; 12.5 μg/mL) was 1.262, the “HBsAg Inhibition %” value (HBsAg; 12.5 μg/mL) was 0% and the “HBsAg OD1” value (HBsAg; 12.5 μg/mL) was 1.305. The “HBsAg OD2” value (HBsAg; 12.5 μg/mL) was 1.149, the “HBsAg OD3” value (HBsAg; 12.5 μg/mL) was 1.331 and the “HBsAg Ave.” value (HBsAg; 25 μg/mL) was 1.474. For the same compound, the “HBsAg Inhibition %” value (HBsAg; 25 μg/mL) was 0%, the “HBsAg OD1” value (HBsAg; 25 μg/mL) was 1.604 and the “HBsAg OD2” value (HBsAg; 25 μg/mL) was 1.418. The “HBsAg OD3” value (HBsAg; 25 μg/mL) was 1.401, the “HBsAg Ave.” value (HBsAg; 50 μg/mL) was 1.473 and the “HBsAg Inhibition %” value (HBsAg; 50 μg/mL) was 0%. For the same compound, the “HBsAg OD1” value (HBsAg; 50 μg/mL) was 1.659, the “HBsAg OD2” value (HBsAg; 50 μg/mL) was 1.504 and the “HBsAg OD3” value (HBsAg; 50 μg/mL) was 1.255. For the same compound, the “HBsAg Ave.” value (HBsAg; 100 μg/mL) was 1.507, the “HBsAg Inhibition %” value (HBsAg; 100 μg/mL) was 0% and the “HBsAg OD1” value (HBsAg; 100 μg/mL) was 1.584. For the same compound, the “HBsAg OD2” value (HBsAg; 100 μg/mL) was 1.469, the “HBsAg OD3” value (HBsAg; 100 μg/mL) was 1.468 and the “HBsAg Ave.” value (HBsAg; 200 μg/mL) was 1.527. For the same compound, the “HBsAg Inhibition %” value (HBsAg; 200 μg/mL) was 0%, the “HBsAg OD1” value (HBsAg; 200 μg/mL) was 1.546 and the “HBsAg OD2” value (HBsAg; 200 μg/mL) was 1.504. For the same compound, the “HBsAg OD3” value (HBsAg; 200 μg/mL) was 1.531, the “anti-HBSAg activity (in words)” value (HBsAg; Tables 1-2) was “inactive” and the “HBeAg Ave” value (HBeAg; 12.5 μg/mL) was 1.369. The “HBeAg Inhibition %” value (HBeAg; 12.5 μg/mL) was 0%, the “HBeAg OD1” value (HBeAg; 12.5 μg/mL) was 1.509 and the “HBeAg OD2” value (HBeAg; 12.5 μg/mL) was 1.254. For the same compound, the “HBeAg OD3” value (HBeAg; 12.5 μg/mL) was 1.345, the “HBeAg Ave” value (HBeAg; 25 μg/mL) was 1.512 and the “HBeAg Inhibition %” value (HBeAg; 25 μg/mL) was 0%. The “HBeAg OD1” value (HBeAg; 25 μg/mL) was 1.558, the “HBeAg OD2” value (HBeAg; 25 μg/mL) was 1.488 and the “HBeAg OD3” value (HBeAg; 25 μg/mL) was 1.49. For the same compound, the “HBeAg Ave” value (HBeAg; 50 μg/mL) was 1.642, the “HBeAg Inhibition %” value (HBeAg; 50 μg/mL) was 0% and the “HBeAg OD1” value (HBeAg; 50 μg/mL) was 1.774. The “HBeAg OD2” value (HBeAg; 50 μg/mL) was 1.669, the “HBeAg OD3” value (HBeAg; 50 μg/mL) was 1.482 and the “HBeAg Ave” value (HBeAg; 100 μg/mL) was 1.558. The “HBeAg Inhibition %” value (HBeAg; 100 μg/mL) was 0%, the “HBeAg OD1” value (HBeAg; 100 μg/mL) was 1.607 and the “HBeAg OD2” value (HBeAg; 100 μg/mL) was 1.502. For the same compound, the “HBeAg OD3” value (HBeAg; 100 μg/mL) was 1.565, the “HBeAg Ave” value (HBeAg; 200 μg/mL) was 1.450 and the “HBeAg Inhibition %” value (HBeAg; 200 μg/mL) was 0%. The “HBeAg OD1” value (HBeAg; 200 μg/mL) was 1.095, the “HBeAg OD2” value (HBeAg; 200 μg/mL) was 1.634 and the “HBeAg OD3” value (HBeAg; 200 μg/mL) was 1.621. For the same compound, the “inhibition of HCV/HIV entry” value (HCV/HIV pseudovirions; 100 μg/mL) was “inactive”, the “anti-hepatitis C virus activity (in words)” value (HCV/HIV pseudovirions) was “inactive” and the “HBV DNA Average” value (HBV DNA; 12.5 μg/ml) was 1.18 × 10^6 copies/ml. For the same compound, the “HBV DNA Inhibit” value (HBV DNA; 12.5 μg/ml) was 0.00%, the “HBV DNA copies/ml” value (HBV DNA; 12.5 μg/ml) was 1.32E+06 copies/ml and 9.64E+05 copies/ml and 1.26E+06 copies/ml and the “HBV DNA Average” value (HBV DNA; 25 μg/ml) was 1.64 × 10^6 copies/ml. For the same compound, the “HBV DNA Inhibit” value (HBV DNA; 25 μg/ml) was 0.00%, the “HBV DNA copies/ml” value (HBV DNA; 25 μg/ml) was 1.95E+06 copies/ml and 1.30E+06 copies/ml and 1.67E+06 copies/ml and the “HBV DNA Average” value (HBV DNA; 50 μg/ml) was 1.16 × 10^6 copies/ml. The “HBV DNA Inhibit” value (HBV DNA; 50 μg/ml) was 0.85%, the “HBV DNA copies/ml” value (HBV DNA; 50 μg/ml) was 1.26E+06 copies/ml and 1.14E+06 copies/ml and 1.07E+06 copies/ml and the “HBV DNA Average” value (HBV DNA; 100 μg/ml) was 1.02 × 10^6 copies/ml. The “HBV DNA Inhibit” value (HBV DNA; 100 μg/ml) was 12.80%, the “HBV DNA copies/ml” value (HBV DNA; 100 μg/ml) was 7.78E+05 copies/ml and 7.93E+05 copies/ml and 1.50E+06 copies/ml and the “HBV DNA Average” value (HBV DNA; 200 μg/ml) was 8.40 × 10^5 copies/ml. The “HBV DNA Inhibit” value (HBV DNA; 200 μg/ml) was 28.20%, the “HBV DNA copies/ml” value (HBV DNA; 200 μg/ml) was 1.17E+06 copies/ml and 5.77E+05 copies/ml and 7.74E+05 copies/ml and the “Anti-HBV DNA activity (in words)” value (HBV DNA; Table 3) was “inactive”. For the same compound, the “% Control HBSAg” value [1] was 96%, the “% Inhibition” value [1] was 4% and the “% Cell Viability” value (Hep G2.2.15 cells) was 100%.

For alpha-interferon, the “patients with a pronounced effect in reducing HCV to a very low level in the blood” value (HCV; chronic hepatitis C patients) is listed as “about 25%”.
